For orientation: IC50 means the concentration needed to halve the response being measured.

The target of data set [1] is T1, Tyrosine-protein phosphatase non-receptor type 1 (Homo sapiens, UniProt P18031).
T1 sequence (P18031 whole entry): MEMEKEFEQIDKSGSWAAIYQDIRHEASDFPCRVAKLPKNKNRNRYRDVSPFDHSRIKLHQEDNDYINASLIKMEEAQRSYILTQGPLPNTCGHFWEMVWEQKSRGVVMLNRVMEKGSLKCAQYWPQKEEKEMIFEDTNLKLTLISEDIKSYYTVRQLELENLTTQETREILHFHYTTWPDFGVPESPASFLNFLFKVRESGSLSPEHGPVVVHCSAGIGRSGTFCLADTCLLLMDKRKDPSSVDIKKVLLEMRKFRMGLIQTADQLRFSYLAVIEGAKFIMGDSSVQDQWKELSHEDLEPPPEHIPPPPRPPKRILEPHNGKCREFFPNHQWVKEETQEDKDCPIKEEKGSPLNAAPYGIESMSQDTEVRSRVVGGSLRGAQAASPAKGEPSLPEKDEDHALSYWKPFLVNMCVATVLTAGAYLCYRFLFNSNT
As to the kind of experiment: Inhibition of PTP1B (unknown origin) assessed as reduction in nitrophenol production using pNPP as substrate incubated for 30 mins by EnVisionMultilable plate reader based method.

In data set [2] the target is T2, Tyrosine-protein phosphatase non-receptor type 2 (Homo sapiens, UniProt P17706).
T2 sequence (P17706 whole entry): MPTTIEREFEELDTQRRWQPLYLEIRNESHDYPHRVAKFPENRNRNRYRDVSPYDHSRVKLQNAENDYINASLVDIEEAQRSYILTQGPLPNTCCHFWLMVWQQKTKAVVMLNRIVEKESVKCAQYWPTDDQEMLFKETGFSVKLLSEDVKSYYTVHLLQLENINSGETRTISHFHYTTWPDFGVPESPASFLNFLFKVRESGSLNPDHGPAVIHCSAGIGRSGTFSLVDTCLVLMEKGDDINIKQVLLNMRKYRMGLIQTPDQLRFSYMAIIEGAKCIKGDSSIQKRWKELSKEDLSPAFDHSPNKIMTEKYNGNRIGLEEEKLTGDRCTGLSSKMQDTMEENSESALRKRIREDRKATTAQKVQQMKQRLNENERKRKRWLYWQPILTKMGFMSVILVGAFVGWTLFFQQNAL
The data set can be described thus: Inhibition of TCPTP (unknown origin) assessed as reduction in nitrophenol production using pNPP as substrate incubated for 30 mins by EnVisionMultilable plate reader based method.

The species entered for data set [3] is Homo sapiens. The data set can be described thus: Selectivity ratio of IC50 for TCPTP (unknown origin) using pNPP as substrate to IC50 for PTP1B (unknown origin) using pNPP as substrate.
Data set [4] addresses T3, Tyrosine-protein phosphatase non-receptor type 1 (Homo sapiens) (UniProt P18031).
T3 sequence (whole entry): T1 sequence (P18031 whole entry)
As to the kind of experiment: Competitive inhibition of PTP1B (unknown origin) assessed as increase in Km at 0 to 9.6 uM using varying levels of pNPP as substrate by Lineweaver-Burk plot analysis.

Data set [5] addresses T3, Tyrosine-protein phosphatase non-receptor type 1 (Homo sapiens). The data set can be described thus: Competitive inhibition of PTP1B (unknown origin) assessed as change in V max at 0 to 9.6 uM using varying levels of pNPP as substrate by Lineweaver-Burk plot analysis.
Data set [6] in a line: Cytotoxicity against human L02 cells assessed as cell viability at 1 to 250 uM after 72 hrs by WST1 assay. The settings on record: read-out: Activity. Type of data set: cell-based. On the technique in general: Tetrazolium assays rely on reduction of a dye to a coloured formazan, in cell work by metabolically active cells.
Data set [7] concerns L02. As to the kind of experiment: Cytotoxicity against human L02 cells assessed as reduction in cell viability after 72 hrs by WST1 assay. The data set is classed as cell-based. To be noted: L02, 72 h.
Data set [8] concerns the target T1, Tyrosine-protein phosphatase non-receptor type 1. As to the kind of experiment: Inhibition of human FLAG-tagged PTP1B catalytic domain (1 to 298) expressed in Escherichia coli using fluorescein diphosphate as substrate by fluorescence based method.
The target in data set [9] is T2, Tyrosine-protein phosphatase non-receptor type 2. The data set can be described thus: Inhibition of human FLAG-tagged TCPTP (1 to 296) expressed in Escherichia coli using fluorescein diphosphate as substrate by fluorescence based method.
Data set [10] addresses T3, Tyrosine-protein phosphatase non-receptor type 1 (Homo sapiens). The data set can be described thus: Competitive inhibition of PTP1B (unknown origin) assessed as increase in Km at 0 to 28.8 uM using varying levels of pNPP as substrate by Lineweaver-Burk plot analysis.
Data set [11] has the same target. As to the kind of experiment: Competitive inhibition of PTP1B (unknown origin) assessed as change in V max at 0 to 28.8 uM using varying levels of pNPP as substrate by Lineweaver-Burk plot analysis.
Data set [12] is filed under the species Homo sapiens. As to the kind of experiment: Selectivity ratio of IC50 for TCPTP (unknown origin) to IC50 for human GST-tagged PTP1B.

SMILES strings stand for the structures. Active and inactive are the calls of the source. The rule behind the calls is not given here. Where only a bound is given, the exact number is not on record here.

With `COC(=O)C1=C(C(C)(C)C)NC(=S)N[C@H]1/C=C/c1ccc(Cl)cc1`, the IC50 is 6.65 µM in data set [1] and 54.8 µM in [2]. In data set [3], the Ratio IC50 was 8.24.
Regarding `CCOC(=O)C1=C(C(C)C)NC(=S)N[C@H]1/C=C/c1ccc(Br)cc1`, the IC50 was 11.3 µM in data set [1] and more than 100 µM in [2]. The Ratio IC50 in data set [3] was more than 8.85.
On to `COC(=O)C1=C(C(C)(C)C)NC(=S)N[C@H]1/C=C/c1ccc(C(F)(F)F)cc1`, for which the values for the IC50 in [1] and in [2] were 6.31 µM and more than 100 µM, respectively. Further, in data set [3], the Ratio IC50 was more than 15.8.
Take `COC(=O)C1=C(C(C)C)NC(=S)N[C@H]1/C=C/c1ccc([N+](=O)[O-])cc1`: in data set [1], the IC50 was more than 50 µM.
Regarding `COC(=O)C1=C(C(C)(C)C)NC(=S)N[C@H]1/C=C/c1ccc(C)cc1`, the figures for the IC50 in data set [1] and in data set [2] were 16.3 µM and more than 100 µM, respectively. For the same molecule, in [3], the Ratio IC50 is more than 6.13.
For `COC(=O)C1=C(C(C)C)NC(=S)N[C@H]1/C=C/c1ccc(Br)cc1`, the IC50 in [1] was 6.28 µM; in data set [2], more than 100 µM. Further, the Ratio IC50 in data set [3] is more than 15.9.
In the case of `CCOC(=O)C1=C(C(C)C)NC(=S)N[C@H]1/C=C/c1ccc(C(F)(F)F)cc1`, the IC50 in data set [1] was 10.3 µM; in [2], more than 100 µM. Also, in data set [3], the Ratio IC50 was more than 9.66.
As to `COC(=O)C1=C(C(C)C)NC(=S)N[C@H]1/C=C/c1ccc(Cl)cc1`, the values for the IC50 in data set [1], in data set [2] and in [7] were 7.12 µM, more than 100 µM and more than 250 µM, respectively. Moreover, the Ratio IC50 in data set [3] was more than 14. For the same molecule, the inhibition entry in data set [4] and in data set [5] was “Active” in each case. Besides, the viability at 72 h, up to 250 µM in [6] is more than 85%.
Consider `CCOC(=O)C1=C(C(C)C)NC(=S)N[C@H]1/C=C/c1ccc(OC)cc1`, for which the IC50 is 2.38 µM in data set [1] and 40.4 µM in data set [2]. The Ratio IC50 in [3] amounted to 17.
For the molecule `CCOC(=O)C1=C(C(C)C)NC(=S)N[C@H]1/C=C/c1ccc(C)cc1`, the IC50 was 7.49 µM in data set [1] and more than 100 µM in data set [2]. Also, the Ratio IC50 in [3] is more than 13.3.
As for `COC(CC(C)C)c1ccc2ccc(-c3ccc(CC(Cc4ccc(C(F)(F)P(=O)(O)O)cc4)(c4ccccc4)n4nnc5ccccc54)cc3)c(P(=O)(O)O)c2n1` (configuration not stated), the IC50 worked out at 0.005 µM in data set [8] and 0.036 µM in data set [9].
In the case of `COC(=O)C1=C(C(C)C)NC(=S)N[C@H]1/C=C/c1ccc(F)cc1`, the IC50 in data set [1] was 3.33 µM; in data set [2], more than 100 µM; in data set [7], more than 250 µM. In data set [3], the Ratio IC50 is more than 30. Also, the inhibition result in data set [10] and in data set [11] was “Active” throughout. For the same molecule, the viability at 72 h, up to 250 µM in data set [6] was more than 85%.
Turning to `CCOC(=O)C1=C(C(C)C)NC(=S)N[C@H]1/C=C/c1ccccc1`, the IC50 in [1] is more than 50 µM.
`COC(=O)C1=C(C(C)(C)C)NC(=S)N[C@H]1/C=C/c1ccccc1`: the IC50 in data set [1] is more than 50 µM.
Consider `COC(=O)C1=C(C(C)C)NC(=S)N[C@H]1/C=C/c1ccccc1`, for which the IC50 in data set [1] is 18.6 µM; in [2] it was more than 100 µM. The Ratio IC50 in data set [3] is more than 5.39.
In the case of `CCOC(=O)C1=C(C(C)C)NC(=S)N[C@H]1/C=C/c1ccc(Cl)cc1`, the figures for the IC50 in data set [1] and in data set [2] were 4.79 µM and 35.8 µM, respectively. Besides, the Ratio IC50 in data set [3] came out at 7.47.
For `COC(=O)C1=C(C(C)(C)C)NC(=S)N[C@H]1/C=C/c1ccc(OC)cc1`, the figures for the IC50 in data set [1] and in [2] were 5.03 µM and more than 100 µM, respectively. Moreover, the Ratio IC50 in data set [3] is more than 19.9.
As to `COC(=O)C1=C(C(C)(C)C)NC(=S)N[C@H]1/C=C/c1ccc(Br)cc1`, the IC50 in data set [1] is 11 µM; in data set [2], 36 µM. Further, the Ratio IC50 in [3] was determined as 3.28.
Take `CCOC(=O)C1=C(C(C)C)NC(=S)N[C@H]1/C=C/c1ccc(F)cc1`: the IC50 in [1] was more than 50 µM.
In the case of `COC(=O)C1=C(C(C)C)NC(=S)N[C@H]1/C=C/c1ccc(C(F)(F)F)cc1`, the IC50 in data set [1] was 5.49 µM; in data set [2], more than 100 µM. In addition, in data set [3], the Ratio IC50 was more than 18.2.
`CC(C)OCc1cc(O)c(O)c(Br)c1Cc1cc(O)c(O)c(Br)c1Br`: the Ratio IC50 in data set [12] is more than 50.
With `COC(=O)C1=C(C(C)(C)C)NC(=S)N[C@H]1/C=C/c1ccc(F)cc1`, the IC50 in [1] was more than 50 µM.
Turning to `CC1(C)CC[C@]2(C(=O)O)CC[C@]3(C)C(=CC[C@@H]4[C@@]5(C)CC[C@H](O)C(C)(C)[C@@H]5CC[C@]43C)[C@@H]2C1` [OLEANOLIC_ACID], the viability at 72 h, up to 250 µM in data set [6] is less than 85%.
For the molecule `COC(=O)C1=C(C(C)(C)C)NC(=S)N[C@H]1/C=C/c1ccc([N+](=O)[O-])cc1`, the half-maximal inhibitory concentration (IC50) in [1] was 11.4 µM; in data set [2] it was more than 100 µM. For the same molecule, in [3], the Ratio IC50 was more than 8.79.
Take `CCOC(=O)C1=C(C(C)C)NC(=S)N[C@H]1/C=C/c1ccc([N+](=O)[O-])cc1`: the IC50 in data set [1] is more than 50 µM; in [2] it was more than 100 µM.

The record behind these values is ChEMBL document CHEMBL4433240, “Identification and characterization of potent and selective inhibitors targeting protein tyrosine phosphatase 1B (PTP1B)” (Bioorg Med Chem Lett, 2019).
